Assay [1] deals with C57 black male mice. In words: Inhibitory effect on MPTP-induced dopaminergic neurodegeneration (striatal DA and DOPAC by HPLC). It counts as in vivo, mouse. Particulars: for Inhibitory Rate (%) DA / Inhibitory Rate (%) DOPAC / DA (ng/g tissue) / DOPAC (ng/g tissue): striatum, 24 hours after last MPTP; for DA (ng/g tissue) / DOPAC (ng/g tissue): mean ± standard error; for inhibitory effect on the MPTP-induced reduction in the contents of dopamine and DOPAC in the striatum: po. On the procedure:
(§1) In each experiment, the contents of monoamine neurotransmitters and metabolites thereof in the striatum were measured by high performance liquid chromatography (HPLC) method. HPLC was carried out using a system consisting of a pump (L-6000, manufactured by Hitachi, Ltd., Japan), an autoinjector, a column (Cosmosil 5C18-A, manufactured by Nacalai Tesque, Inc., Japan; 4.6Ø×250 mm), and an electrochemical detector (ECD-100, manufactured by Eicom Corporation, Japan) under the following conditions.
In addition, the statistical analysis was carried out by Dunnett's multiple comparison test.
(§2) C57 black male mice (11-week-old) were used in the experiment. MPTP hydrochloride was dissolved in a physiological saline solution in a concentration of 3 mg/ml, and the resulting solution was intraperitoneally injected to the mice in a volume of 0.1 ml per 10 g of body weight, i.e., at a dose of 30 mg/kg, once a day for 8 days repetitively. […]
(§3) The striatum excised was homogenized with a 50-fold volume of 0.1 N formic acid:acetone (15:85) containing an internal standard substance (5-hydroxytriptophol; 20 ng/ml), and the mixture was centrifuged under cooling. A fixed amount of the supernatant was collected and evaporated to dryness under stream of nitrogen gas. Then, the resultant was dissolved in a 0.01 N acetic acid and centrifuged, and then the contents of various monoamine neurotransmitters and metabolites thereof in the supernatant were measured by HPLC being equipped with an electrochemical detector.
MPTP hydrochloride was intraperitoneally administered to C57 black male mice (11-week-old) at a dose of 30 mg/kg once a day for 8 days repetitively in the same manner as in Experiment 1. The test drugs, i.e., antiepileptic agents, were suspended in a 0.5% aqueous tragacanth solution, and the resultant was orally administered to the mice in a volume of 0.1 ml per 10 g of body weight 30 minutes prior to the MPTP administration for 8 days. […] The contents of dopamine and a metabolite thereof in the striatum were measured in the same manner as in Experiment 1. […] The dosages for each administration of various antiepileptic agents are shown below. […] Forsch. (Drug Res.), 30, 477 (1980) for other antiepileptic agents were employed, respectively.
The inhibitory rate was calculated from the values in the normal animal group, the vehicle-treated group and the test drug-treated group. The values in Table represent a mean value ± a standard error, and the marks * and ** mean that there is a significant difference from the value of the vehicle-treated group with p<0.05 and p<0.01, respectively.
The perpendicular lines in the figures represent standard errors, and the marks * and ** mean that there is a significant difference from the value of the vehicle-treated group with p<0.05 and p<0.01, respectively.

The next assay has as its system C57 black mice. Particulars: MPTP hydrochloride 15 mg/kg s.c. once; cited from earlier work.
For assay [2], the system named is C57 black male mice. Nature of the assay: Preparation of animal model for Parkinson's disease: striatal monoamine neurotransmitters and metabolites after MPTP. It counts as in vivo, mouse. Particulars: MPTP hydrochloride 30 mg/kg ip once a day for 8 days. As to the method: as §1, §2, §3
The changes in the contents of various neurotransmitters and metabolites thereof 24 hours after the last MPTP administration are shown in FIG. 1. The number of animals in each group is 8, and the perpendicular lines in the figures represent standard errors, and the mark ** means that there is a significant difference from the value of the control group (the group treated with a physiological saline solution) with p<0.01.

[3] abbreviates: 14-days group (14 days after the last MPTP administration), in words (FIG. 2).
The mark [4] stands for this setting: 24-hours group, in words (Table 1).
Where [5] appears, read: 24 hours after last administration (FIG. 1).
[6] abbreviates: 100 mg/kg po for 8 days, 100 mg/kg.
The mark [7] stands for this setting: 100 mg/kg po for 8 days, listed as zonisamide, 100 mg/kg.

Marks after values point to notes of the source that are not given here.

For the compound `CC(=O)Nc1nnc(S(N)(=O)=O)s1` [AZA, Acetazolamide], in the assay with C57 black male mice [1] (100 mg/kg po for 8 days), the “Inhibitory Rate (%) DA” value is listed as −4.1%, the “Inhibitory Rate (%) DOPAC” value was 1.2%, the “DA (ng/g tissue)” value is 1803 ± 428 ng/g tissue and the “DOPAC (ng/g tissue)” value came to 138 ± 23 ng/g tissue.
For the compound `NC(=O)N1c2ccccc2C=Cc2ccccc21` [CBZ, Carbamazepine], the “inhibitory effect on dopamine depletion induced by MPTP” value (“inhibitory effect … by MPTP” below) in the assay on C57 black mice is “does not show such effect”. In addition, in the assay on C57 black male mice [1] (setting [3]), the “inhibitory effect on the MPTP-induced reduction in the contents of dopamine and DOPAC in the striatum” value is recorded as “did not show any significant inhibitory effect”. The “inhibitory effect on the MPTP-induced reduction in the contents of dopamine and DOPAC in the striatum” value in the assay on C57 black male mice [1] (setting [4]) is on record as “did not show any significant inhibitory effect”. Moreover, in the assay on C57 black male mice [1] (20 mg/kg po for 8 days), the “Inhibitory Rate (%) DA” value is on record as 25.0%, the “DA (ng/g tissue)” value is 3087 ± 453 ng/g tissue and the “DOPAC (ng/g tissue)” value is 251 ± 36 ng/g tissue. In the assay on C57 black male mice [1] (60 mg/kg po for 8 days), the “Inhibitory Rate (%) DA” value came to 20.8%, the “Inhibitory Rate (%) DOPAC” value is listed as 23.0%, the “DA (ng/g tissue)” value stood at 2894 ± 750 ng/g tissue and the “DOPAC (ng/g tissue)” value is 202 ± 52 ng/g tissue.
With `CN1C(=O)CN=C(c2ccccc2)c2cc(Cl)ccc21` [DZP, Diazepam], in the assay with C57 black male mice [1] (5 mg/kg po for 8 days), the “Inhibitory Rate (%) DA” value is on record as 24.3%, the “Inhibitory Rate (%) DOPAC” value was found to be 18.3%, the “DA (ng/g tissue)” value amounted to 3356 ± 451 ng/g tissue and the “DOPAC (ng/g tissue)” value amounted to 208 ± 28 ng/g tissue.
`CCC1(C)CC(=O)NC1=O` (centres unmarked) [ESM, Ethosuximide]: in the assay with C57 black male mice [1] (600 mg/kg po for 8 days), the “Inhibitory Rate (%) DA” value is −18.7%, the “Inhibitory Rate (%) DOPAC” value was −12.9%, the “DA (ng/g tissue)” value was 1008 ± 182 ng/g tissue and the “DOPAC (ng/g tissue)” value came to 80 ± 10 ng/g tissue.
`Nc1nnc(-c2cccc(Cl)c2Cl)c(N)n1` [LTG, 3,5-diamino-6-(2,3-dichlorophenyl)-1,2,4-triazine]: the “inhibitory effect … by MPTP” value with C57 black mice was “show an inhibitory effect”. In the assay with C57 black male mice [1] (30 mg/kg po for 8 days), the “Inhibitory Rate (%) DA” value was found to be 51.6%, the “Inhibitory Rate (%) DOPAC” value was determined as 34.1%, the “DA (ng/g tissue)” value is given as 4844 ± 676** ng/g tissue and the “DOPAC (ng/g tissue)” value is recorded as 273 ± 31** ng/g tissue.
For the compound `CN1CC=C(c2ccccc2)CC1` [MPTP, 1-methyl-4-phenyl-1,2,3,6-tetrahydropyridine], in the assay with C57 black male mice [2] (setting [5]), the “contents of dopamine (DA), homovanillic acid (HVA) and DOPAC in the striatum” value is listed as “significantly reduced”; the “contents of noradrenaline (NA), serotonin (5HT), MOPEG and 5HIAA in the striatum” value was “never affected”. Besides, the “reduction in the contents of dopamine and metabolites thereof in the striatum” value in the assay with C57 black male mice [2] (14 days after last administration (FIG. 2)) is “irreversible”.
In the case of `CCC1(c2ccccc2)C(=O)NC(=O)NC1=O` [PB, Phenobarbital], in the assay on C57 black male mice [1] (40 mg/kg po for 8 days), the “Inhibitory Rate (%) DA” value is 23.5%, the “Inhibitory Rate (%) DOPAC” value is on record as 16.3%, the “DA (ng/g tissue)” value was found to be 3310 ± 544 ng/g tissue and the “DOPAC (ng/g tissue)” value was determined as 200 ± 32 ng/g tissue.
On to `O=C1NC(=O)C(c2ccccc2)(c2ccccc2)N1` [PHT, Phenytoin], for which the “inhibitory effect … by MPTP” value with C57 black mice is on record as “show an inhibitory effect”. Besides, in the assay with C57 black male mice [1] (30 mg/kg po for 8 days), the “Inhibitory Rate (%) DA” value is given as 37.4%, the “Inhibitory Rate (%) DOPAC” value came to 30.2%, the “DA (ng/g tissue)” value is reported as 4073 ± 454* ng/g tissue and the “DOPAC (ng/g tissue)” value was 257 ± 30* ng/g tissue.
Turning to `CCCC(CCC)C(=O)[O-].[Na+]` [VPA, Sodium valproate], in the assay with C57 black male mice [1] (800 mg/kg po for 8 days), the “Inhibitory Rate (%) DA” value is 17.5%, the “Inhibitory Rate (%) DOPAC” value was found to be 13.2%, the “DA (ng/g tissue)” value was 2984 ± 468 ng/g tissue and the “DOPAC (ng/g tissue)” value was found to be 187 ± 29 ng/g tissue.
For `NS(=O)(=O)Cc1noc2ccccc12` [ZNS, 3-sulfamoylmethyl-1,2-benzisoxazole], the “inhibitory effect on the MPTP-induced reduction in the contents of dopamine and DOPAC in the striatum” value in the assay with C57 black male mice [1] (setting [3]) and in the assay with C57 black male mice [1] (setting [4]) was “dose-dependent inhibitory effect” in each case. Besides, the “Inhibitory Rate (%) DA” value with C57 black male mice [1] (10 mg/kg po for 8 days) is reported as 22.3%; with C57 black male mice [1] (30 mg/kg po for 8 days) it was 80.3%; in the assay on C57 black male mice [1] (setting [6]), 97.2%; in the assay with C57 black male mice [1] (setting [7]), around 100%. Also, the “Inhibitory Rate (%) DOPAC” value was 29.8% with C57 black male mice [1] (10 mg/kg po for 8 days), 82.1% in the assay on C57 black male mice [1] (30 mg/kg po for 8 days), 109.1% in the assay on C57 black male mice [1] (setting [6]) and around 100% in the assay on C57 black male mice [1] (setting [7]). Also, the “DA (ng/g tissue)” value is listed as 3797 ± 201* ng/g tissue in the assay on C57 black male mice [1] (10 mg/kg po for 8 days), 7373 ± 685** ng/g tissue with C57 black male mice [1] (30 mg/kg po for 8 days) and 8434 ± 336** ng/g tissue in the assay on C57 black male mice [1] (100 mg/kg po for 8 days). Besides, the results for the “DOPAC (ng/g tissue)” value in the assay on C57 black male mice [1] (10 mg/kg po for 8 days), with C57 black male mice [1] (30 mg/kg po for 8 days) and with C57 black male mice [1] (100 mg/kg po for 8 days) were 221 ± 11* ng/g tissue, 370 ± 27** ng/g tissue and 447 ± 24** ng/g tissue, respectively.

These data come from US6342515B1, “Remedy for neurodegenerative diseases” (Dainippon Pharmaceutical Co., Ltd., priority 1997, dated 2002).
